Measurements taken from PubChem BioAssay AID250 (DTP/NCI, 2004).
Where “and” joins values, the source holds several entries; their conditions need not be identical. Equal values may be shown once. Inconclusive results and toxic doses are left out.

Tested on: BDF1 mice, L1210 leukemia sc, survival T/C
Experiment: NCI In Vivo Anticancer Drug Screen. Data for tumor model L1210 Leukemia (subcutaneous) in B6D2F1 (BDF1) mice
Conditions: endpoint: median survival time, higher = longer survival
Procedure, shortened: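 Read-out: T/C ratio, i.e. survival or tumor size in treated mice over that in vehicle-treated controls, from mice bearing transplantable tumors.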

[1] = dose: 8.4 mg/kg/injection, schedule: Q01DX Z (sc), vehicle: saline
[2] = dose: 14.0 mg/kg/injection, schedule: Q01DX Z (sc), vehicle: saline
[3] = dose: 3.0 mg/kg/injection, schedule: Q01DX Z (sc), vehicle: methylcellulose (MC)
[4] = dose: 65.0 mg/kg/injection, schedule: Q01DX Z (sc), vehicle: other
[5] = dose: 180.0 mg/kg/injection, schedule: Q01DX Z (sc), vehicle: other
[6] = dose: 5.0 mg/kg/injection, schedule: Q01DX Z (sc), vehicle: methylcellulose (MC)
[7] = dose: 8.4 mg/kg/injection, schedule: Q01DX Z (sc), vehicle: methylcellulose (MC)
[8] = dose: 14.0 mg/kg/injection, schedule: Q01DX Z (sc), vehicle: methylcellulose (MC)
[9] = dose: 23.0 mg/kg/injection, schedule: Q01DX Z (sc), vehicle: methylcellulose (MC)

With `O=c1[nH]c(=O)n([C@H]2CCCO2)cc1F` the T/C (dose: 39.0 mg/kg/injection, schedule: Q01DX009 (ip), vehicle: water) was 107 % of control, the T/C (dose: 39.0 mg/kg/injection, schedule: Q01DX009 (sc), vehicle: water) was 100 % of control and the T/C (dose: 65.0 mg/kg/injection, schedule: Q01DX009 (ip), vehicle: water) was 108 % of control. For the same compound, the T/C (dose: 65.0 mg/kg/injection, schedule: Q01DX009 (sc), vehicle: water) was 109 % of control, the T/C (dose: 108.0 mg/kg/injection, schedule: Q04DX003 (ip), vehicle: water) was 119 % of control and the T/C (dose: 108.0 mg/kg/injection, schedule: Q04DX003 (sc), vehicle: water) was 102 % of control. For the same compound, the T/C (dose: 180.0 mg/kg/injection, schedule: Q01DX009 (ip), vehicle: water) was 120 % of control, the T/C (dose: 180.0 mg/kg/injection, schedule: Q01DX009 (sc), vehicle: water) was 117 % of control and the T/C (dose: 180.0 mg/kg/injection, schedule: Q04DX003 (ip), vehicle: water) was 120 % of control. The T/C (dose: 180.0 mg/kg/injection, schedule: Q04DX003 (sc), vehicle: water) was 110 % of control, the T/C (dose: 300.0 mg/kg/injection, schedule: Q01DX009 (ip), vehicle: water) was 97 % of control and the T/C (dose: 300.0 mg/kg/injection, schedule: Q01DX009 (sc), vehicle: water) was 100 % of control. For the same compound, the T/C (dose: 300.0 mg/kg/injection, schedule: Q04DX003 (ip), vehicle: water) was 152 % of control, the T/C (dose: 500.0 mg/kg/injection, schedule: Q04DX003 (sc), vehicle: water) was 161 % of control and the T/C (dose: 833.0 mg/kg/injection, schedule: Q04DX003 (ip), vehicle: water) was 168 % of control. For the same compound, the T/C (dose: 833.0 mg/kg/injection, schedule: Q04DX003 (sc), vehicle: water) was 106 % of control.
`CCCOC1=C(N2CC2)C(=O)C(OCCC)=C(N2CC2)C1=O` was tested, and the T/C [1] was 110 % of control, the T/C [2] was 110 % of control and the T/C (dose: 108.0 mg/kg/injection, schedule: Q01DX Z (sc), vehicle: saline) was 115 % of control.
In the case of `NC(=O)N(CCCl)N=O`, the T/C (dose: 0.39 mg/kg/injection, schedule: Q01DX Z (sc), vehicle: methylcellulose (MC)) is reported as 123 % of control, the T/C (dose: 0.65 mg/kg/injection, schedule: Q01DX Z (sc), vehicle: methylcellulose (MC)) is reported as 123 % of control and the T/C (dose: 0.65 mg/kg/injection, schedule: Q01DX Z (sc), vehicle: saline) is reported as 168 % of control. For the same compound, the T/C (dose: 1.08 mg/kg/injection, schedule: Q01DX Z (sc), vehicle: methylcellulose (MC)) was 247 % of control, the T/C (dose: 1.08 mg/kg/injection, schedule: Q01DX Z (sc), vehicle: saline) was 273 % of control and the T/C (dose: 1.8 mg/kg/injection, schedule: Q01DX Z (sc), vehicle: methylcellulose (MC)) was 300 % of control. The T/C (dose: 1.8 mg/kg/injection, schedule: Q01DX Z (sc), vehicle: saline) was 420 % of control and 526 % of control, the T/C [3] was 309 % of control and the T/C (dose: 3.0 mg/kg/injection, schedule: Q01DX Z (sc), vehicle: saline) was 365 % of control and 463 % of control. For the same compound, the T/C (dose: 5.0 mg/kg/injection, schedule: Q01DX001 (sc), vehicle: saline) was 157 % of control, the T/C (dose: 5.0 mg/kg/injection, schedule: Q01DX Z (sc), vehicle: saline) was 270 % of control and 310 % of control and the T/C (dose: 5.0 mg/kg/injection, schedule: Q07DX Z (sc), vehicle: saline) was 200 % of control. For the same compound, the T/C (dose: 8.4 mg/kg/injection, schedule: Q01DX001 (sc), vehicle: saline) was 178 % of control, the T/C [1] was 170 % of control and the T/C (dose: 8.4 mg/kg/injection, schedule: Q07DX Z (sc), vehicle: saline) was 289 % of control. The T/C (dose: 14.0 mg/kg/injection, schedule: Q01DX001 (sc), vehicle: saline) was 178 % of control, the T/C [2] was 120 % of control and the T/C (dose: 14.0 mg/kg/injection, schedule: Q07DX Z (sc), vehicle: saline) was 257 % of control. For the same compound, the T/C (dose: 23.0 mg/kg/injection, schedule: Q01DX Z (sc), vehicle: saline) was 110 % of control and the T/C (dose: 23.0 mg/kg/injection, schedule: Q07DX Z (sc), vehicle: saline) was 152 % of control.
In the case of `CN(Cc1cnc2nc(N)nc(N)c2n1)c1c(Cl)cc(C(=O)NC(CCC(=O)O)C(=O)O)cc1Br` (centres undefined), the T/C (dose: 1.8 mg/kg/injection, schedule: Q## X Z (sc), vehicle: other) is reported as 266 % of control, the T/C (dose: 3.0 mg/kg/injection, schedule: Q## X Z (sc), vehicle: other) is reported as 288 % of control and the T/C (dose: 4.9 mg/kg/injection, schedule: Q01DX Z (ip), vehicle: other) is reported as 111 % of control. The T/C (dose: 5.0 mg/kg/injection, schedule: Q01DX Z (sc), vehicle: other) was 100 % of control, the T/C (dose: 5.0 mg/kg/injection, schedule: Q## X Z (sc), vehicle: other) was 422 % of control and the T/C (dose: 8.3 mg/kg/injection, schedule: Q01DX Z (ip), vehicle: other) was 122 % of control. The T/C (dose: 8.4 mg/kg/injection, schedule: Q01DX Z (sc), vehicle: other) was 111 % of control, the T/C (dose: 8.4 mg/kg/injection, schedule: Q## X Z (sc), vehicle: other) was 100 % of control and the T/C (dose: 14.0 mg/kg/injection, schedule: Q01DX Z (sc), vehicle: other) was 244 % of control. The T/C (dose: 14.1 mg/kg/injection, schedule: Q01DX Z (ip), vehicle: other) was 122 % of control, the T/C (dose: 23.0 mg/kg/injection, schedule: Q01DX Z (sc), vehicle: other) was 283 % of control and 300 % of control and the T/C (dose: 23.4 mg/kg/injection, schedule: Q01DX Z (ip), vehicle: other) was 283 % of control. The T/C (dose: 38.9 mg/kg/injection, schedule: Q01DX Z (ip), vehicle: other) was 305 % of control, the T/C (dose: 39.0 mg/kg/injection, schedule: Q01DX Z (sc), vehicle: other) was 322 % of control and 338 % of control and the T/C (dose: 39.0 mg/kg/injection, schedule: Q## X Z (sc), vehicle: other) was 104 % of control. For the same compound, the T/C (dose: 64.8 mg/kg/injection, schedule: Q01DX Z (ip), vehicle: other) was 300 % of control, the T/C [4] was 316 % of control and 333 % of control and the T/C (dose: 65.0 mg/kg/injection, schedule: Q## X Z (sc), vehicle: other) was 104 % of control. The T/C (dose: 107.0 mg/kg/injection, schedule: Q01DX Z (ip), vehicle: other) was 244 % of control, the T/C (dose: 108.0 mg/kg/injection, schedule: Q01DX Z (sc), vehicle: other) was 211 % of control and 233 % of control and the T/C (dose: 108.0 mg/kg/injection, schedule: Q## X Z (sc), vehicle: other) was 104 % of control. For the same compound, the T/C (dose: 179.0 mg/kg/injection, schedule: Q01DX Z (ip), vehicle: other) was 177 % of control, the T/C [5] was 166 % of control and the T/C (dose: 180.0 mg/kg/injection, schedule: Q## X Z (sc), vehicle: other) was 109 % of control. For the same compound, the T/C (dose: 300.0 mg/kg/injection, schedule: Q## X Z (sc), vehicle: other) was 114 % of control and the T/C (dose: 500.0 mg/kg/injection, schedule: Q## X Z (sc), vehicle: other) was 114 % of control.
`CCNc1nncs1` was tested, and the T/C [4] was 120 % of control, the T/C [5] was 150 % of control and the T/C (dose: 300.0 mg/kg/injection, schedule: Q01DX Z (sc), vehicle: other) was 175 % of control.
With `O=C(Nc1ccc(C2=NCCCN2)cc1)c1ccc(C(=O)Nc2ccc(C3=NCCCN3)cc2)cc1` the T/C [3] was 190 % of control, the T/C [6] was 195 % of control and the T/C [7] was 165 % of control. For the same compound, the T/C [8] was 155 % of control and the T/C [9] was 150 % of control.
With `NC(CSC(c1ccccc1)(c1ccccc1)c1ccccc1)C(=O)O` (centres undefined) the T/C (dose: 5.0 mg/kg/injection, schedule: Q03HX003 (sc), vehicle: saline) was 114 % of control, the T/C (dose: 8.4 mg/kg/injection, schedule: Q03HX003 (sc), vehicle: saline) was 117 % of control and the T/C (dose: 23.0 mg/kg/injection, schedule: Q03HX003 (sc), vehicle: saline) was 150 % of control. The T/C (dose: 39.0 mg/kg/injection, schedule: Q03HX003 (sc), vehicle: saline) was 92 % of control, the T/C (dose: 65.0 mg/kg/injection, schedule: Q01DX009 (sc), vehicle: saline) was 150 % of control and the T/C (dose: 108.0 mg/kg/injection, schedule: Q04DX003 (sc), vehicle: saline) was 121 % of control. The T/C (dose: 300.0 mg/kg/injection, schedule: Q02DX005 (sc), vehicle: saline) was 89 % of control, the T/C (dose: 500.0 mg/kg/injection, schedule: Q02DX005 (sc), vehicle: saline) was 92 % of control and the T/C (dose: 833.0 mg/kg/injection, schedule: Q04DX003 (sc), vehicle: saline) was 114 % of control.
In the case of `ClCCn1c2ccccc2c2ccccc21`, the T/C [6] is reported as 100 % of control, the T/C [7] is reported as 100 % of control and the T/C [8] is reported as 100 % of control. For the same compound, the T/C [9] was 100 % of control, the T/C (dose: 39.0 mg/kg/injection, schedule: Q01DX Z (sc), vehicle: methylcellulose (MC)) was 100 % of control and the T/C (dose: 65.0 mg/kg/injection, schedule: Q01DX Z (sc), vehicle: methylcellulose (MC)) was 100 % of control. The T/C (dose: 108.0 mg/kg/injection, schedule: Q01DX Z (sc), vehicle: methylcellulose (MC)) was 100 % of control.
